Columns and labels:
[1] = biological target: T1, Vesicular acetylcholine transporter (Homo sapiens, UniProt Q16572); assay: Binding affinity to VAchT transfected in rat PC12 cells; type: cell-based, PC-12
T1 sequence (Q16572 whole entry): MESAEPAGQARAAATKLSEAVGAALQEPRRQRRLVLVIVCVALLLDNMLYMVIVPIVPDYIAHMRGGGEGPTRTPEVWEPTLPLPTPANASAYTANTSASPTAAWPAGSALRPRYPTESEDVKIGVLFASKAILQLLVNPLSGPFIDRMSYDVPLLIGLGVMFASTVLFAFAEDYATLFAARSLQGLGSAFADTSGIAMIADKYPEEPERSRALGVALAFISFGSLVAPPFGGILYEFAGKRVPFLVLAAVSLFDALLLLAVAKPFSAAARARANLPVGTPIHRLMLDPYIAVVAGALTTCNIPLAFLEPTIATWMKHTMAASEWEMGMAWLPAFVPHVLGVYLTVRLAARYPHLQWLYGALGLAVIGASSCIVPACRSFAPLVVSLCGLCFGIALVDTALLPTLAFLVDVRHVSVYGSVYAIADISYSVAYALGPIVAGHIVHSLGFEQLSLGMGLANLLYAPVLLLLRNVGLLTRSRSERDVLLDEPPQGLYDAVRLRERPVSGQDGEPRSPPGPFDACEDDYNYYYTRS

[2] = biological target: T1, Vesicular acetylcholine transporter; assay: Binding affinity to VAchT
[3] = biological target: T2, Vesicular acetylcholine transporter (Rattus norvegicus, UniProt Q62666); assay: Displacement of (-)-[3H]vesamicol from rat VAchT transfected in rat PC12 cells after 2 hrs by scintillation counting; type: cell-based, PC-12
T2 sequence (Q62666 whole entry): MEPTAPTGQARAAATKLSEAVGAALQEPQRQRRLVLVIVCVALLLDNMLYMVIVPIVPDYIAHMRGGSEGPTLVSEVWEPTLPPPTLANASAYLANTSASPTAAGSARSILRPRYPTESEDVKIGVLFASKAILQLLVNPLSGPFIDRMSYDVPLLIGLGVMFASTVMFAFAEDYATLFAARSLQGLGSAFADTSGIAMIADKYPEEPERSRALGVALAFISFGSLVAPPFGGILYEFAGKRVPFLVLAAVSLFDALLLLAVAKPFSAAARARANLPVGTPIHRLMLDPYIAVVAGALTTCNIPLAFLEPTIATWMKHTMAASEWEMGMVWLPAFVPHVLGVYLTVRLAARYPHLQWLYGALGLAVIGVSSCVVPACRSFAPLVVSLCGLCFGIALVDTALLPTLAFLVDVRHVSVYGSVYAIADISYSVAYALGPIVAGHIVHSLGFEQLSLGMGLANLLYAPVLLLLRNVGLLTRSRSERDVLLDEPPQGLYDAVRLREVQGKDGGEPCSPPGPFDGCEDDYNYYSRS

Ki [3] | SMILES | Ki [2] | further results
– | O=C(c1ccc([18F])cc1)N1CCOC2C[C@@H](O)[C@H](N3CCC(c4ccccc4)CC3)CC21 (mixture of isomers) | – | Ki [1]: 27.5 nM
– | CCN(C(=O)C[18F])c1cccc2c1C[C@@H](N1CCC(c3ccccc3)CC1)[C@H](O)C2 | 0.32 nM | –
312 nM | O=C(c1ccc(F)cc1)c1cc2c([nH]1)C[C@@H](N1CCC(c3ccccc3)CC1)[C@H](O)C2 (racemic) | – | –
– | O[C@@H]1CCN(Cc2ccc([18F])cc2)C[C@H]1N1CCC(c2ccccc2)CC1 (racemic) | 0.44 nM | –
7320 nM | O=C(c1ccc(F)cc1)c1cc2c([nH]1)C[C@@H](O)[C@H](N1CCC(c3ccccc3)CC1)C2 (racemic) | – | –

— ChEMBL document CHEMBL1955760, “Pyrrolovesamicols--synthesis, structure and VAChT binding of two 4-fluorobenzoyl regioisomers” (Bioorg Med Chem Lett, 2012)
